The results in this text go back to PubChem BioAssay AID179 (DTP/NCI, 2004).

Several values for one entry are separate records, joined by “and”; a condition that tells them apart may be missing. Equal values may be shown once. Activity calls are given as the source filed them.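 How the source made its calls: active means compounds giving half or more protection of infected cells from virus-caused growth loss, again on retest; inactive means the rest.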 Some results are limits rather than exact numbers.

The test system of this experiment is CEM cells HIV-1 protection, formazan growth assay. Briefly: NCI AIDS Antiviral Assay. The note with it: for IC50: measured here: growth of uninfected CEM cells. Put shortly:
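CEM (human) cells, HIV-1 infected vs uninfected, 5-point dosing, formazan growth read-out. Retest threshold 50% protection.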

On to `COc1c(O)c2c(=O)cc(OC)c3c4c(OC)cc(=O)c5c(O)c(OC)c6c(c(c1CC(C)(O)C6C(C)=O)c23)c54` (stereo not drawn), for which the EC50 is greater than 13.2 µM and the IC50 was 1.58 µM.

With `Clc1cc2nc(C3CCCCO3)[nH]c2cc1Cl` (stereo not drawn), the EC50 was greater than 200 µM and the IC50 was found to be 10.2 µM.

On to `CN(c1ccccc1)c1nc(=[N+](C)C)ss1`, for which the result was inactive.

With `COc1cc(CNC(=O)CCCCCCCC/C=C/Br)ccc1O`, the EC50 is greater than 200 µM and the IC50 amounted to 21.4 µM.

As for `COc1cc(C)c(Br)c2c1C(=O)C(Br)(Br)CC2`, the EC50 was greater than 200 µM and the IC50 is 0.309 µM.

On to `O=C1OCCOCCOCCOC(=O)c2ccccc2SSc2ccccc21`, for which the EC50 is greater than 200 µM and the IC50 was determined as 33.9 µM.

As for `CN(C)CCNC(=O)c1nc([N+](=O)[O-])cn1C`, the EC50 was greater than 200 µM and the IC50 is greater than 200 µM.

Consider `FC(F)(F)/C(=N/Nc1ccccc1)SS/C(=N\Nc1ccccc1)C(F)(F)F`, for which the EC50 is greater than 200 µM and the IC50 was 38 µM.

For `CN/N=C(\C(=O)Nc1ccc(C)c(C)c1)C(C(=O)OC)c1nc2ccc([N+](=O)[O-])cc2[nH]c1=O` (stereo not drawn), the EC50 is greater than 77.6 µM and the 50% inhibitory concentration (IC50) was greater than 77.6 µM.

As for `Cc1cc(Cl)ccc1N=C1NC(=O)C(CC(=O)Nc2cccc(Cl)c2)S1` (stereo not drawn), the outcome was inactive.

As to `COC(=O)C(Cc1nc2ccccc2[nH]c1=O)C(=O)C(=O)Nc1ccc(F)cc1` (stereo not drawn), the EC50 was greater than 91.2 µM and the IC50 worked out at 16.2 µM.

Consider `CN(C)CCCNc1c2ccccc2nc2cccc([N+](=O)[O-])c12`, for which the EC50 was greater than 0.2 µM and the IC50 turned out to be 0.000407 µM.

Turning to `COC(=O)/C(=N\Nc1nc(=S)[nH]n1N)C(C#N)c1ccc(Cl)cc1` (stereo not drawn), the EC50 is greater than 37.2 µM and the IC50 was greater than 37.2 µM.

On to `O=C1/C(=C/c2ccc3c(c2)OCCO3)CCC/C1=C\c1ccc2c(c1)OCCO2`, for which the EC50 is greater than 6.92 µM and the IC50 was greater than 6.92 µM.

With `CCOC(=O)/C=C/c1nc(C#N)c(N)o1`, the EC50 is greater than 200 µM and the IC50 came to 102 µM.

Regarding `CCCSS/C(CCO)=C(\C)N(C=O)Cc1cnc(C)nc1N`, the EC50 is greater than 200 µM and the IC50 is 10.5 µM.

For the compound `Cc1ccccc1N1C(=O)[N+](C)(C)N=C1[O-]`, the EC50 was greater than 1150 µM and the IC50 was greater than 1150 µM.

Take `COc1cc([N+](=O)[O-])ccc1N1C(=O)C2c3[nH]c4ccccc4c3C3CCC(C(C)(C)C)CC3C2C1=O` (stereo not drawn): the EC50 was greater than 200 µM and the IC50 came out at 138 µM.

Turning to `CC(C)=CCC/C(C)=C\C=N/O`, the EC50 is greater than 155 µM and the IC50 was determined as 8.13 µM.

With `Cc1cccc(C)c1N=O`, the result was inactive.

For `Cc1cc(S(=O)(=O)Nc2n[nH]c(N)n2)c(Cl)cc1Cl`, the EC50 was greater than 200 µM and the IC50 is greater than 200 µM.

On to `C[n+]1c(-c2ccc(/C=N/NC(=O)c3cc(O)c(C(=O)N/N=C/c4ccc(-c5cn6ccccc6[n+]5C)cc4)cc3O)cc2)cn2ccccc21`, for which the EC50 is greater than 6.31 µM and the IC50 is greater than 6.31 µM.

For the compound `CCn1c(SC(C)C(=O)c2c(C)n(C)n(-c3ccccc3)c2=O)nc2ccccc2c1=O` (stereo not drawn), the EC50 was greater than 112 µM and the IC50 was greater than 112 µM.

Regarding `O=C1C(=O)C(c2ccccc2)Oc2ccccc21` (stereo not drawn), the EC50 was greater than 200 µM and the half-maximal inhibitory concentration (IC50) was 25.1 µM.

`CN1C(Cl)=NS(=O)(=O)c2ccccc21`: the EC50 is greater than 200 µM and the IC50 was greater than 200 µM.

As for `CSc1c(C(=O)Nc2ccc(Cl)cc2)c(N)nn1-c1ccccc1`, the EC50 is greater than 200 µM and the 50% inhibitory concentration (IC50) was greater than 200 µM.

Consider `COc1cc(/C=C2\C(=O)N(c3cc(Cl)ccc3Cl)C(c3ccccc3)S2(=O)=O)cc(OC)c1OC` (stereo not drawn), for which the EC50 is greater than 200 µM and the IC50 was 120 µM.

As to `C[C@]12CC[C@H]3[C@@H](CC=C4C[C@@H](O)CC[C@@]43C)[C@@H]1CC[C@@H]2N(CCO)CCO`, the EC50 is greater than 200 µM and the IC50 stood at 60.3 µM.

Take `CC(C)(C)C1COP(=S)(C(C)(C)C)OC1` (stereo not drawn): the EC50 is greater than 14.5 µM and the IC50 is greater than 14.5 µM.

As for `C1CCCC(N2N=NC3C4CC(C5N=NN(C6CCCCCC6)C45)C32)CC1` (stereo not drawn), the EC50 is greater than 200 µM and the IC50 is greater than 200 µM.

On to `Cc1ccc(C)c(NC(=O)CC/C(=N\NC(=O)c2c(O)ccc3ccccc23)C(C)C(=O)c2ccc(O)cc2)c1` (stereo not drawn), for which the EC50 was greater than 27.5 µM and the IC50 came out at 14.5 µM.

Turning to `O=C(CC(=O)C(=O)CC(=O)OCc1ccccc1)OCc1ccccc1`, the EC50 is greater than 105 µM and the IC50 worked out at 89.1 µM.

Take `Oc1c(OCc2nnc(CCCCCCCCc3nnc(COc4ccc5ccccc5c4O)n3Nc3ccccc3)n2Nc2ccccc2)ccc2ccccc12`: the EC50 was greater than 2 µM and the IC50 is greater than 2 µM.

As to `COc1cc2nc(CC(O)c3nc4cc(OC)c(OC)cc4[nH]3)[nH]c2cc1OC` (stereo not drawn), the EC50 is greater than 200 µM and the IC50 was 17.4 µM.

`CC(O[Si](C)(C)C)C1C=CC(C)n2c(=O)n(-c3ccccc3)c(=O)n21` (stereo not drawn): the result was inactive.

Consider `CCn1c(SCC(=O)NNC(=S)Nc2ccc(F)cc2)nc2ccccc2c1=O`, for which the EC50 was greater than 200 µM and the IC50 worked out at 129 µM.

Regarding `NC1=NS(=O)(=O)Nc2nc(-c3ccc([N+](=O)[O-])cc3)[nH]c21`, the EC50 is greater than 200 µM and the IC50 was greater than 200 µM.

With `COc1ccccc1C(=O)c1c(N2CCCCC2)c(=O)c1=O`, the EC50 was 182 µM and the IC50 is greater than 200 µM.

For the compound `Clc1nncc2sc(-c3ccccc3)nc12`, the EC50 is greater than 151 µM and the IC50 worked out at 8.32 µM.

As to `CCOC(=O)CC/C(=N/Nc1ccc(Cl)cc1[N+](=O)[O-])C(=O)OCC`, the EC50 is greater than 200 µM and the concentration for half-maximal inhibition (IC50) is greater than 200 µM.

With `CCSc1ccc2c3c(cccc13)C(=O)N(CCc1ccccn1)C2=O`, the EC50 was greater than 200 µM and the IC50 was greater than 200 µM.

Turning to `C(#CC1(Nc2ccccc2)CCN(Cc2ccccc2)CC1)C1(Nc2ccccc2)CCN(Cc2ccccc2)CC1`, the EC50 is greater than 100 µM and the IC50 worked out at 74.1 µM.

With `c1cc(CCSSCCc2ccncc2)ccn1`, the EC50 is greater than 200 µM and the IC50 amounted to 3.8 µM.

Consider `COc1ccc2c(c1)[n+]([O-])c(S(=O)(=O)c1ccc(C)cc1)c(N)[n+]2[O-]`, for which the result was inactive.

With `O=C(CN1CCCCC1)OCOP(=O)(OCOC(=O)CN1CCCCC1)OCC1CCC(n2ccc(=O)[nH]c2=O)O1` (stereo not drawn), the EC50 was greater than 100 µM and the IC50 came to 36.3 µM.

On to `COC(=O)C1=C(CS(=O)c2ccccc2[N+](=O)[O-])C2C=CC1C2` (stereo not drawn), for which the outcome was inactive.

On to `N#Cc1nc(CCC(C(=O)O)N2C(=O)c3ccccc3C2=O)oc1N` (stereo not drawn), for which the EC50 is greater than 100 µM and the IC50 is greater than 100 µM.

Consider `COC(=O)C1(C(=O)OC)CCCC2=NOC3CCC1C23` (stereo not drawn), for which the EC50 was greater than 891 µM and the IC50 stood at 575 µM.

For `O=c1c2ccccc2nc(-c2ccccc2)n1NC(=S)Nc1ccccc1`, the EC50 is greater than 135 µM and the IC50 was 112 µM.

On to `CN(NC(=O)c1cccs1)C1=NCCN1`, for which the EC50 is greater than 200 µM and the IC50 is greater than 200 µM.

As for `CN(C)C1C(=O)C(C(N)=O)=C(O)C2(O)C(=O)C3=C(O)c4c(O)cccc4C(C)(O)C3CC12` (stereo not drawn), the EC50 was greater than 562 µM; the half-maximal inhibitory concentration (IC50) was 40.7 µM and 10.7 µM.

For the compound `O=C1c2cnccc2Cc2cccc3c2N1c1ccccc1S3`, the EC50 is greater than 22.9 µM and the IC50 was greater than 22.9 µM.

In general, EC50 refers to the midpoint of the concentration-response curve. The IC50 is the concentration that gives 50% inhibition. High values mean a need for much substance, low ones inhibition by little substance.
